Measurements as given in ChEMBL document CHEMBL3856205, “Synthesis and biological evaluation of novel 4-hydroxytamoxifen analogs as estrogen-related receptor gamma inverse agonists” (Eur J Med Chem, 2016).
Values belong to the molecule of their own block, whether it stands above or below them.

Legend:
[1] = target: T1, Estrogen-related receptor gamma (Homo sapiens, UniProt P62508)
T1 sequence (P62508 whole entry): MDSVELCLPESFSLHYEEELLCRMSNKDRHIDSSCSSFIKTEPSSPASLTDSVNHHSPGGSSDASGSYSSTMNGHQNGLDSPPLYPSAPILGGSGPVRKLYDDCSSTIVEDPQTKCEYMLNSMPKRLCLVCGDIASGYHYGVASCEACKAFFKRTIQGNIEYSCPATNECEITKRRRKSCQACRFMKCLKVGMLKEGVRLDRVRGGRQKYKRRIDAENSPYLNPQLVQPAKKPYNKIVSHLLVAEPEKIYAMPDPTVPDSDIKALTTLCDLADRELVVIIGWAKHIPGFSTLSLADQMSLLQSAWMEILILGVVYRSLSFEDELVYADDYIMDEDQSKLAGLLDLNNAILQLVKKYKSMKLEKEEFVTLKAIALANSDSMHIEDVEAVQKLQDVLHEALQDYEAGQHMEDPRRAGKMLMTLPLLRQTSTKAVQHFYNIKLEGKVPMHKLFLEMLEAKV
Description: Inhibition of fluorescien-conjugated coactivator PGC1a binding to GST-tagged human ERRgamma LBD after 1 hr by TR-FRET assay

[2] = target: T2, Steroid hormone receptor ERR1 (Homo sapiens, UniProt P11474); assay: Inhibition of fluorescien-conjugated coactivator PGC1a binding to ERRalpha (unknown origin) after 1 hr by TR-FRET assay
T2 sequence (P11474 whole entry): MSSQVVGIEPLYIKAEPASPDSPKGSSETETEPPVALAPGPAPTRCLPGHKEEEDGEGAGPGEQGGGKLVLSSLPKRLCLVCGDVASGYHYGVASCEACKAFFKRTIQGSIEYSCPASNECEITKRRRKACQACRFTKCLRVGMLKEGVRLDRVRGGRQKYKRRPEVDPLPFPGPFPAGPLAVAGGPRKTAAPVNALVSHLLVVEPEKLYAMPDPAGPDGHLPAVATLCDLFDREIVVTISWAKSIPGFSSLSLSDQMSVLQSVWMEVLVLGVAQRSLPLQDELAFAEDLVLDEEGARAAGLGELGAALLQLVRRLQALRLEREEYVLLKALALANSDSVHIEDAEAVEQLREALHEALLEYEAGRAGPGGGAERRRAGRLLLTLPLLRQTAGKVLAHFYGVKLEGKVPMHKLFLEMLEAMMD

CYP1A2 = target: T3, CYP1A2 (Homo sapiens, UniProt P05177); assay: Inhibition of CYP1A2 in human liver microsomes assessed as remaining activity by measuring phenacetin O-deethylase activity at 10 uM pre-incubated for 5 mins followed by NADPH regenerating system addition by LC-MS/MS analysis relative to control; assay type: ADME; details: probe phenacetin (O-deethylation), read-out: Activity
T3 sequence (P05177 whole entry): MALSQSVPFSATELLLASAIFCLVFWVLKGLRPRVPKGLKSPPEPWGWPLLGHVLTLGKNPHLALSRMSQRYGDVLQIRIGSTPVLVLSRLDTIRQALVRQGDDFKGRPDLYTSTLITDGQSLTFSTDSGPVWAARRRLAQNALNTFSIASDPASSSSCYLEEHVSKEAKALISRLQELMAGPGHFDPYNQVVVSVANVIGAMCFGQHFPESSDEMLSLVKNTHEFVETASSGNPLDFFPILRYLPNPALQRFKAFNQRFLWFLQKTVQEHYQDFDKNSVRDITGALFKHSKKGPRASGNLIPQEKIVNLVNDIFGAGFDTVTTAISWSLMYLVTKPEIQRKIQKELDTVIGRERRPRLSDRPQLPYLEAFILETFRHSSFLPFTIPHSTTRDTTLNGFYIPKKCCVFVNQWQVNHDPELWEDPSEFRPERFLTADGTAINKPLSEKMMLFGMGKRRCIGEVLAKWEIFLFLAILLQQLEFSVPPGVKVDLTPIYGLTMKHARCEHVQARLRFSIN

[3] = target: T4, Steroid hormone receptor ERR2 (Homo sapiens, UniProt O95718); assay: Inhibition of fluorescien-conjugated coactivator PGC1a binding to ERRbeta (unknown origin) after 1 hr by TR-FRET assay
T4 sequence (O95718 whole entry): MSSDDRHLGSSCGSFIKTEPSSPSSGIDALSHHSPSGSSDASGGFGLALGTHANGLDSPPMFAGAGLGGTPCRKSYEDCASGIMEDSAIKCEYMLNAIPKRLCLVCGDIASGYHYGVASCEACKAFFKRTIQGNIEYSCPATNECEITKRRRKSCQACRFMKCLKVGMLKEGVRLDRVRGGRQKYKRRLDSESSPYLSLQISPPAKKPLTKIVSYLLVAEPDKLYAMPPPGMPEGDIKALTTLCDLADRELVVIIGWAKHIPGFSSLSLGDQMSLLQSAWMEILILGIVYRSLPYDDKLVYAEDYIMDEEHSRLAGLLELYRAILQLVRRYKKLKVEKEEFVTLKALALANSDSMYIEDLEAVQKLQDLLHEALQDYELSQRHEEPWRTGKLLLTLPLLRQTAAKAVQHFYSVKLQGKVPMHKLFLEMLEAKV

Estrogen receptor = target: T5, Estrogen receptor (Homo sapiens, UniProt P03372)
T5 sequence (P03372 whole entry): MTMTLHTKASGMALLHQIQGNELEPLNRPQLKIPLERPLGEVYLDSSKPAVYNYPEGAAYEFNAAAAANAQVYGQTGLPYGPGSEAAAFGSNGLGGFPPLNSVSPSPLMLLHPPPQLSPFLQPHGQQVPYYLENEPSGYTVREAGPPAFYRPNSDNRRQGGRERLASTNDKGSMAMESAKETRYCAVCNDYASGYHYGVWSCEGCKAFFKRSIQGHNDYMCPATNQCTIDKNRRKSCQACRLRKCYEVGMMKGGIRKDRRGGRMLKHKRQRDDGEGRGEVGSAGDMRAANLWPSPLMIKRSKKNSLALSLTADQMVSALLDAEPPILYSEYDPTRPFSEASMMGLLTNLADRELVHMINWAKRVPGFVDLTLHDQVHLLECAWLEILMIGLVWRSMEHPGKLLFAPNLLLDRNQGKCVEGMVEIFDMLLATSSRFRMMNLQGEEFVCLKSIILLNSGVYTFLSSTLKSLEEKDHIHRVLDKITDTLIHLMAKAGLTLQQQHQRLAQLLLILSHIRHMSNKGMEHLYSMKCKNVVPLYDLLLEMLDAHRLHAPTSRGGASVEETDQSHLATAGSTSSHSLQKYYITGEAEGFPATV
Description: Inhibition of fluorescien-conjugated coactivator PGC1a binding to ERalpha (unknown origin) after 1 hr by TR-FRET assay

CYP2C9 = CYP2C9 (Homo sapiens, UniProt P11712); assay: Inhibition of CYP2C9 in human liver microsomes assessed as remaining activity by measuring tolbutamide 4-hydroxylase activity at 10 uM pre-incubated for 5 mins followed by NADPH regenerating system addition by LC-MS/MS analysis relative to control; assay type: ADME; details: probe tolbutamide (4-hydroxylation), read-out: Activity
CYP2C9, sequence (P11712 whole entry): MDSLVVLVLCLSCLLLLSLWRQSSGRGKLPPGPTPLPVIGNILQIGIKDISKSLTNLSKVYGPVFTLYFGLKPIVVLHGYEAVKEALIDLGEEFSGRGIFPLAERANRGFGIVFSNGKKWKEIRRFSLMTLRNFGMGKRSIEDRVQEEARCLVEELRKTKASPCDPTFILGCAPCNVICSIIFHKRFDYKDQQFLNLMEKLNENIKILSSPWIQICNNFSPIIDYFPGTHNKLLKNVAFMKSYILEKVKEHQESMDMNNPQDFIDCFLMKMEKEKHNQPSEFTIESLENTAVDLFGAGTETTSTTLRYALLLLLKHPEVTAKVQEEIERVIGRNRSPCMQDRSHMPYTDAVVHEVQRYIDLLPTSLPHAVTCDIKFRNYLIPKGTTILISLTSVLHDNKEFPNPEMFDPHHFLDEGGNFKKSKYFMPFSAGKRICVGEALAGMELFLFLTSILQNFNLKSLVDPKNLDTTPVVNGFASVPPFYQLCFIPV

CYP2C19 = CYP2C19 (Homo sapiens, UniProt P33261); assay: Inhibition of CYP2C19 in human liver microsomes assessed as remaining activity by measuring S-mephenytoin 4-hydroxylase activity at 10 uM pre-incubated for 5 mins followed by NADPH regenerating system addition by LC-MS/MS analysis relative to control; assay type: ADME; details: probe S-mephenytoin (4-hydroxylation), read-out: Activity
CYP2C19, sequence (P33261 whole entry): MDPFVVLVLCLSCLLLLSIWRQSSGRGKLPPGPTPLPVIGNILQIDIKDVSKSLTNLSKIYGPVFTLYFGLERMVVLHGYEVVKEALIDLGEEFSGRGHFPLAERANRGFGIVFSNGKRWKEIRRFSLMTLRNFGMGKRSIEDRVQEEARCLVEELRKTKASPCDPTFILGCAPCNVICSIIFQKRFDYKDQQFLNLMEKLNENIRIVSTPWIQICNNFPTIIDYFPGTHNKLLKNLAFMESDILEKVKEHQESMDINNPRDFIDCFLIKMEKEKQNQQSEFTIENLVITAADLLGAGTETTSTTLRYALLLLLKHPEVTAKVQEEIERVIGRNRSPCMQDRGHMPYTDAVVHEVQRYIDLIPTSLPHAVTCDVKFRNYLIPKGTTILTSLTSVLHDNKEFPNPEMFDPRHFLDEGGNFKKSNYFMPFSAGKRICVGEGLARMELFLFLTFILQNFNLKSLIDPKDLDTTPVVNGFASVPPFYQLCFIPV

CYP2D6 = CYP2D6 (Homo sapiens, UniProt P10635); assay: Inhibition of CYP2D6 in human liver microsomes assessed as remaining activity by measuring dextromethorphan O-demethylase activity at 10 uM pre-incubated for 5 mins followed by NADPH regenerating system addition by LC-MS/MS analysis relative to control; assay type: ADME; details: probe dextromethorphan (O-demethylation), read-out: Activity
CYP2D6, sequence (P10635 whole entry): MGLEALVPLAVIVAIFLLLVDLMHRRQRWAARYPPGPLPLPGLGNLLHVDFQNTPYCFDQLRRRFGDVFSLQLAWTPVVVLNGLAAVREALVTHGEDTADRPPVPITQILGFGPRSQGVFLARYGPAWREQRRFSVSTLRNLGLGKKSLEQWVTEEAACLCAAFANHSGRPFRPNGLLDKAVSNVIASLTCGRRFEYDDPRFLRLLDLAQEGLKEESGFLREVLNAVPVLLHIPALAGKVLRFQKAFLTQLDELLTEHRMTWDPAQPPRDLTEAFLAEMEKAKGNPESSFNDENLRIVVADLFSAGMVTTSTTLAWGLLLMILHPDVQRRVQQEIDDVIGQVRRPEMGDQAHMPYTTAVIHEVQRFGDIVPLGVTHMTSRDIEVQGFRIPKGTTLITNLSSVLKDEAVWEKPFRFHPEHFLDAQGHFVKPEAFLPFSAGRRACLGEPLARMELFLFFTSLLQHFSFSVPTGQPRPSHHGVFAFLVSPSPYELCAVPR

CYP3A4 = CYP3A4 (Homo sapiens, UniProt P08684); assay: Inhibition of CYP3A4 in human liver microsomes assessed as remaining activity by measuring midazolam 1'-hydroxylase activity at 10 uM pre-incubated for 5 mins followed by NADPH regenerating system addition by LC-MS/MS analysis relative to control; assay type: ADME; details: probe midazolam (1'-hydroxylation), read-out: Activity
CYP3A4, sequence (P08684 whole entry): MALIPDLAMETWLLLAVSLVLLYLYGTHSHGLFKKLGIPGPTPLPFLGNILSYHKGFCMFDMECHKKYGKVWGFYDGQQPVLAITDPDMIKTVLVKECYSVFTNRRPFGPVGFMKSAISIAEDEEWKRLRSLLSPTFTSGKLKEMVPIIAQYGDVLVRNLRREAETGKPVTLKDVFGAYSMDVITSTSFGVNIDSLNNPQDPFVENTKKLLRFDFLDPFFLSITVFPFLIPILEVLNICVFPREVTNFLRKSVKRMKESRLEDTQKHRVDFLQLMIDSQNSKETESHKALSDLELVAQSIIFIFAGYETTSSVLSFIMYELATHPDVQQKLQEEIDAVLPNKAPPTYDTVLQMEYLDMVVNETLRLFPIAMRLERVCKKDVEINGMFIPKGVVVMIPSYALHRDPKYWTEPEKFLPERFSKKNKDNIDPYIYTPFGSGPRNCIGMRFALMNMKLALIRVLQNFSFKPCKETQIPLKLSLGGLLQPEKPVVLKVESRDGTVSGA

[4] = Metabolic stability in dog liver microsomes assessed as compound remaining at 1 uM after 30 mins in presence of NADPH by LC-MS/MS analysis; assay type: ADME, Canis lupus familiaris; details: read-out: Stability
[5] = Permeability of the compound in PBS at pH 7.4 at 10 uM after 5 hrs by LC-MS/MS analysis; assay type: ADME; details: not told, read-out: permeability
[6] = target: T1, Estrogen-related receptor gamma; remark: listed apart in the source
Description: Inverse agonist activity at ERRgamma (unknown origin) expressed in human AD293 cells after 24 hrs by beta-galactosidase/luciferase reporter gene assay

in vitro [7] = details: human, liver microsomes
Description: Metabolic stability in human liver microsomes assessed as compound remaining at 1 uM after 30 mins in presence of NADPH by LC-MS/MS analysis

in vitro [8] = details: rat, liver microsomes
Description: Metabolic stability in rat liver microsomes assessed as compound remaining at 1 uM after 30 mins in presence of NADPH by LC-MS/MS analysis

in vitro [9] = details: mouse, liver microsomes
Description: Metabolic stability in mouse liver microsomes assessed as compound remaining at 1 uM after 30 mins in presence of NADPH by LC-MS/MS analysis

SMILES: CN(C)CCOc1ccc(/C(=C(/CCCO)c2ccccc2)c2ccccc2)cc1
- IC50 [1]: 1500 nM

SMILES: COc1ccc(/C(=C(\CCCO)c2ccccc2)c2ccc(OCCN(C)C)cc2)cc1
- IC50 [1]: 1000 nM

SMILES: Cc1ccc(/C(=C(\CCCO)c2ccc3cnn(C)c3c2)c2ccc(OCCN(C)C)cc2)cc1
- IC50 [1]: 5600 nM

SMILES: COc1ccc(/C(=C(\CCCO)c2ccc3cnn(C)c3c2)c2ccc(OCCN(C)C)cc2)cc1
- IC50 [1]: > 10000 nM

SMILES: CN(C)CCOc1ccc(/C(=C(/CCCO)c2cccc(F)c2)c2ccc(Br)cc2)cc1
- IC50 [1]: 1100 nM

SMILES: CN(C)CCOc1ccc(/C(=C(/CCCO)c2cccnc2)c2ccccc2)cc1
- IC50 [1]: > 10000 nM

SMILES: CN(C)CCOc1ccc(/C(=C(/CCC(F)F)c2ccccc2)c2ccc(O)cc2)cc1.Cl
- IC50 [2]: 8100 nM
- activity at 10 µM (CYP1A2): 14%
- IC50 [3]: > 10000 nM
- activity at 10 µM (CYP2C9): 60%
- activity at 10 µM (CYP2C19): 11%
- activity at 10 µM (CYP2D6): 12%
- activity at 10 µM (CYP3A4): 11%
- remaining at 0.5 h, 1 µM [4]: 73%
- Papp at 5 h, 10 µM [5]: 0.54 ×10⁻⁶ cm/s
- IC50 [6]: 111 nM
- remaining at 0.5 h, 1 µM (in vitro [7]): 77%
- remaining at 0.5 h, 1 µM (in vitro [8]): 66%
- remaining at 0.5 h, 1 µM (in vitro [9]): 91%

SMILES: CN(C)CCOc1ccc(/C(=C(/CCCO)c2cccnc2)c2ccc(Br)cc2)cc1
- IC50 [1]: > 10000 nM

Further molecules by falling IC50 [1], results first:

- IC50 [1]: 520 nM
SMILES: CN(C)CCOc1ccc(/C(=C(/CCCO)c2ccccc2)c2ccc(Cl)cc2)cc1

- IC50 [1]: 500 nM
SMILES: Cc1ccc(/C(=C(\CCCO)c2cccc(F)c2)c2ccc(OCCN(C)C)cc2)cc1

- IC50 [1]: 480 nM
SMILES: CN(C)CCOc1ccc(/C(=C(/CCCF)c2ccccc2)c2ccc(Br)cc2)cc1

- IC50 [2]: > 10000 nM
- activity at 10 µM (CYP1A2): > 100%
- IC50 [3]: 6950 nM
- IC50 (Estrogen receptor): > 10000 nM
- activity at 10 µM (CYP2C9): 86%
- activity at 10 µM (CYP2C19): 61%
- activity at 10 µM (CYP2D6): 99%
- activity at 10 µM (CYP3A4): 88%
- remaining at 0.5 h, 1 µM [4]: 5.8%
- Papp at 5 h, 10 µM [5]: 6.52 ×10⁻⁶ cm/s
- IC50 [1]: 117 nM
- IC50 [6]: 719 nM
- remaining at 0.5 h, 1 µM (in vitro [7]): 42%
- remaining at 0.5 h, 1 µM (in vitro [8]): 30%
- remaining at 0.5 h, 1 µM (in vitro [9]): 35%
SMILES: CN(C)CCOc1ccc(/C(=C(/CCCO)c2ccccc2)c2ccc(Br)cc2)cc1.Cl
